In ChEMBL document CHEMBL5143534, “Synthesis and biological evaluation of BU-4664L derivatives as potential anticancer agents” (2022):

system: PC-3; assay: Antiproliferative activity against human PC-3 cells assessed as cell growth inhibition by MTT assay; type: functional

SMILES | GI50 [µM]
CC(C)=CCC/C(C)=C/CC/C(C)=C/CN1C(=O)c2ccccc2Nc2cnc(Cl)nc21 | 5.94
COc1ccc2c(c1)N(C/C=C(\C)CCC=C(C)C)C(=O)c1ccccc1N2 | 10.8
COc1ccc2c(c1)N(Cc1cc(OC)c(OC)c(OC)c1)C(=O)c1ccccc1N2 | 10.2
COc1ccc2c(c1)N(Cc1ccc(OC)c(OC)c1)C(=O)c1ccccc1N2 | 12.5
COc1ccc(CN2C(=O)c3ccccc3Nc3ccc(OC)cc32)cc1 | 10.6
CC(C)=CCC/C(C)=C/CN1C(=O)c2ccccc2Nc2cnc(Cl)nc21 | 7.29
O=C1c2ccccc2Nc2cnc(Cl)nc2N1C/C=C/c1ccccc1 | 12.5
CC(C)=CCN1C(=O)c2ccccc2Nc2cnc(Cl)nc21 | 6.12

The remaining molecules from weak to strong by GI50, led by results:

GI50 [µM] | SMILES
11 | COc1ccc2c(c1)N(C/C=C(\C)CC/C=C(\C)CCC=C(C)C)C(=O)c1ccccc1N2
8.31 | COc1ccc(CN2C(=O)c3ccccc3Nc3cnc(Cl)nc32)cc1OC
8.23 | COc1cc(CN2C(=O)c3ccccc3Nc3cnc(Cl)nc32)cc(OC)c1OC
7.37 | COc1ccc2c(c1)N(C/C=C/c1ccccc1)C(=O)c1ccccc1N2
6.69 | COc1ccc(CN2C(=O)c3ccccc3Nc3cnc(Cl)nc32)cc1
5.66 | COc1ccc2c(c1)N(CC=C(C)C)C(=O)c1ccccc1N2
1.95 | CC(C)=CCC/C(C)=C/CC/C(C)=C/CN1C(=O)c2cccc(O)c2Nc2c(O)cc(O)cc21 [DIAZEPINOMICIN]

system: NCI-H460; assay: Antiproliferative activity against human NCI-H460 cells assessed as cell growth inhibition by MTT assay; type: functional

SMILES | GI50 [µM]
CC(C)=CCC/C(C)=C/CC/C(C)=C/CN1C(=O)c2ccccc2Nc2cnc(Cl)nc21 | 19.9
COc1ccc2c(c1)N(C/C=C(\C)CCC=C(C)C)C(=O)c1ccccc1N2 | 43.9
COc1ccc2c(c1)N(Cc1cc(OC)c(OC)c(OC)c1)C(=O)c1ccccc1N2 | 34.8
COc1ccc2c(c1)N(Cc1ccc(OC)c(OC)c1)C(=O)c1ccccc1N2 | 44.4
CC(C)=CCC/C(C)=C/CN1C(=O)c2ccccc2Nc2cnc(Cl)nc21 | 24.3
CC(C)=CCN1C(=O)c2ccccc2Nc2cnc(Cl)nc21 | 38.1

More lines, now with the values ahead:

GI50 [µM] | SMILES
34.4 | COc1ccc2c(c1)N(C/C=C(\C)CC/C=C(\C)CCC=C(C)C)C(=O)c1ccccc1N2
36.6 | COc1ccc2c(c1)N(C/C=C/c1ccccc1)C(=O)c1ccccc1N2
25.6 | COc1ccc2c(c1)N(CC=C(C)C)C(=O)c1ccccc1N2
13.6 | CC(C)=CCC/C(C)=C/CC/C(C)=C/CN1C(=O)c2cccc(O)c2Nc2c(O)cc(O)cc21 [DIAZEPINOMICIN]
